From patent US7109338B2, “1,2-disubstituted 1,4-dihydro-4-oxoquinoline compounds” (priority 1999, dated 2006)
Values after ≈ are worked out from the molar mass of the structure shown.

Assays:
[1] = test system: Poliovirus type 1 (Polio 1, Sabin); experiment: microbe, parasite or virus in culture; assay type: cell-based; conditions: Enterovirus C, HeLa S3, read-out: IC50 Polio 1
[2] = test system: echovirus type 11 (Echo 11, Gregory); experiment: In vitro anti-picornavirus activity (MTT), Echo 11; assay type: cell-based; conditions: Enterovirus B; HeLa-S3 cells, MTT method, 37° C.
[3] = test system: coxsackievirus type A7 (CA7); experiment: In vitro anti-picornavirus activity (MTT), CA7; assay type: cell-based; conditions: Coxsackievirus; HeLa-S3 cells, MTT method, 37° C.
[4] = test system: coxsackievirus type B4 (CB4,JVB); experiment: In vitro anti-picornavirus activity (MTT), CB4; assay type: cell-based; conditions: Coxsackievirus; HeLa cells, MTT method, 37° C.
[5] = test system: HRV1A (E28); experiment: Anti-rhinovirus activity (MTT), HRV1A; assay type: cell-based, human rhinovirus; conditions: Human rhinovirus sp., HRV1A, HeLa, read-out: IC50 HRV 1A
[6] = test system: human rhinovirus type 1B (HRV 1B, B632); experiment: Anti-rhinovirus activity (MTT), HRV1B; assay type: cell-based; conditions: Human rhinovirus sp., HRV1B; HeLa (Ohio strain) cells, MTT method, 33° C.; read-out: IC50 HRV1B
[7] = test system: HRV 2 (HGP); experiment: Anti-rhinovirus activity (MTT), HRV2; assay type: cell-based, human rhinovirus; conditions: Human rhinovirus sp., HRV2; HeLa (Ohio strain) cells, MTT method, 33° C.; read-out: IC50 HRV2
[8] = test system: HRV14 (1059); experiment: Anti-rhinovirus activity (MTT), HRV14; assay type: cell-based, human rhinovirus; conditions: Human rhinovirus sp., HRV14; HeLa (Ohio strain) cells, MTT method, 33° C.; read-out: IC50 HRV 14
[9] = test system: HRV 89 (41617-Gallo); experiment: Anti-rhinovirus activity (MTT), HRV89; assay type: cell-based, human rhinovirus; conditions: Human rhinovirus sp., HRV89; HeLa (Ohio strain) cells, MTT method, 33° C.; read-out: IC50 HRV89
[10] = Cytotoxicity (MTT, without virus), HeLa; conditions: human, HeLa cells (uninfected)
[11] = Cytotoxicity (MTT, without virus), HeLa-S3; conditions: human, HeLa-S3 cells (uninfected)
[12] = Cytotoxicity (MTT, without virus), HeLa(Ohio); conditions: human, HeLa (Ohio strain) cells (uninfected)

Row | SMILES | IC50 [1] [µg/mL] | IC50 [2] [µg/mL] | IC50 [3] [µg/mL] | IC50 [4] [µg/mL] | IC50 [5] [µg/mL] | IC50 [6] [µg/mL] | IC50 [7] [µg/mL] | IC50 [8] [µg/mL] | IC50 [9] [µg/mL] | CC50 at 4 days [10] [µg/mL] | CC50 at 4 days [11] [µg/mL] | CC50 at 4 days [12] [µg/mL] | melting point
1 | CCn1c2c(c(=O)c3cc(C(C)C)ccc31)Cc1cc(C)sc1-2 [Compound D51, 10-Ethyl-7-isopropyl-2-methyl-5,10-dihydro-4H-thieno[3′,2′:4,5]cyclopenta[1,2-b]quinolin-5-one] | 0.28 (≈ 0.866 µM) | 0.21 (≈ 0.649 µM) | 1.1 (≈ 3.4 µM) | 0.72 (≈ 2.23 µM) | 3.1 (≈ 9.58 µM) | 0.59 (≈ 1.82 µM) | 0.27 (≈ 0.835 µM) | 0.82 (≈ 2.54 µM) | 0.35 (≈ 1.08 µM) | > 5 | > 5 | > 5 | –
2 | CCn1c(-c2ccco2)cc(=O)c2cc(C(C)C)ccc21 [Compound A304, 1-Ethyl-2-(2-furyl)-6-isopropyl-1,4-dihydro-4-oxoquinoline] | 0.8 (≈ 2.84 µM) | 0.35 (≈ 1.24 µM) | 3.6 (≈ 12.8 µM) | 1.9 (≈ 6.75 µM) | – | 0.76 (≈ 2.7 µM) | 0.34 (≈ 1.21 µM) | – | 0.9 (≈ 3.2 µM) | 18 (≈ 64 µM) | > 20 | 19 (≈ 67.5 µM) | 70 to 73 °C
3 | CCn1c2c(c(=O)c3cc(C(C)C)ccc31)Cc1c(C)csc1-2 [Compound D52, 10-Ethyl-7-isopropyl-3-methyl-5,10-dihydro-4H-thieno[3′,2′:4,5]cyclopenta[1,2-b]quinolin-5-one] | 1 (≈ 3.09 µM) | 0.55 (≈ 1.7 µM) | > 5 | 3 (≈ 9.27 µM) | 3.1 (≈ 9.58 µM) | 0.89 (≈ 2.75 µM) | 0.86 (≈ 2.66 µM) | 1.1 (≈ 3.4 µM) | 0.85 (≈ 2.63 µM) | > 5 | > 5 | > 5 | 195 °C (dec.)
4 | CCn1c2c(c(=O)c3cc(C(C)C)ccc31)Cc1ccccc1-2 [Compound B2, 5-Ethyl-8-isopropyl-5,10-dihydro-11H-indeno[1,2-b]quinolin-10-one] | 0.58 (≈ 1.91 µM) | 0.19 (≈ 0.626 µM) | 3.1 (≈ 10.2 µM) | 0.97 (≈ 3.2 µM) | 5 (≈ 16.5 µM) | 0.54 (≈ 1.78 µM) | 0.15 (≈ 0.494 µM) | 0.65 (≈ 2.14 µM) | 0.48 (≈ 1.58 µM) | > 10 | > 10 | > 10 | –
